Where “and” joins values, the source holds several entries; their conditions need not be identical. Equal values may be shown once.
Tested on: BDF1 mice, Adenocarcinoma 755 s.c., tumor weight T/C
Experiment: NCI In Vivo Anticancer Drug Screen. Data for tumor model Adenocarcinoma 755 (subcutaneous) in B6D2F1 (BDF1) mice
Details: endpoint: mean tumor weight, higher = larger tumour
Procedure, shortened: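 Readout: T/C, i.e. treated-group measurement over vehicle-control measurement. Endpoint is survival or tumor size in tumor-bearing mice given compound.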

[1] = dose: 50.0 mg/kg/injection, schedule: Q01DX011 (ip), vehicle: saline
[2] = dose: 100.0 mg/kg/injection, schedule: Q01DX011 (ip), vehicle: saline
[3] = dose: 200.0 mg/kg/injection, schedule: Q01DX011 (ip), vehicle: saline

Question: Which results are given for `CN(C)[C@@H]1C(=O)C(C(=O)NCNc2nc3n[nH]nc3c(=O)[nH]2)=C(O)[C@@]2(O)C(=O)C3=C(O)c4c(O)cccc4[C@@](C)(O)[C@H]3C[C@@H]12`?
Answer: T/C (dose: 25.0 mg/kg/injection, schedule: Q01DX011 (ip), vehicle: saline): 89 % of control; T/C [1]: 93 % of control; T/C [2]: 79 % of control; T/C [3]: 40 % of control

Question: With `c1ccc2cc(SCCCN3CCOCC3)ccc2c1` as the compound, how does the T/C (dose: 37.5 mg/kg/injection, schedule: Q01DX011 (ip), vehicle: methylcellulose (MC)) read?
Answer: 90 % of control and 107 % of control

Question: What about the T/C (dose: 37.5 mg/kg/injection, schedule: Q01DX011 (ip), vehicle: saline) of the same compound?
Answer: 115 % of control

Question: And the T/C (dose: 75.0 mg/kg/injection, schedule: Q01DX011 (ip), vehicle: methylcellulose (MC))?
Answer: 103 % of control

Question: What about the T/C (dose: 75.0 mg/kg/injection, schedule: Q01DX011 (ip), vehicle: saline) of the same compound?
Answer: 59 % of control

Question: What about the T/C (dose: 150.0 mg/kg/injection, schedule: Q01DX011 (ip), vehicle: methylcellulose (MC)) of the same compound?
Answer: 70 % of control

Question: And the T/C (dose: 150.0 mg/kg/injection, schedule: Q01DX011 (ip), vehicle: saline)?
Answer: 20 % of control

Question: How did the T/C (dose: 0.5 mg/kg/injection, schedule: Q01DX011 (ip), vehicle: carboxymethylcellulose (CMC)) turn out when `Nc1nc(N)c(N=O)c(Nc2ccc(I)cc2)n1` was run?
Answer: 70 % of control

Question: And the T/C (dose: 1.0 mg/kg/injection, schedule: Q01DX011 (ip), vehicle: carboxymethylcellulose (CMC))?
Answer: 79 % of control and 80 % of control

Question: And the T/C (dose: 2.0 mg/kg/injection, schedule: Q01DX011 (ip), vehicle: carboxymethylcellulose (CMC))?
Answer: 62 % of control

Question: What about the T/C (dose: 8.0 mg/kg/injection, schedule: Q01DX011 (ip), vehicle: carboxymethylcellulose (CMC)) of the same compound?
Answer: 34 % of control and 54 % of control and 59 % of control

Question: What about the T/C (dose: 32.0 mg/kg/injection, schedule: Q01DX011 (ip), vehicle: carboxymethylcellulose (CMC)) of the same compound?
Answer: 25 % of control and 28 % of control and 40 % of control

Question: What about the T/C (dose: 64.0 mg/kg/injection, schedule: Q01DX011 (ip), vehicle: carboxymethylcellulose (CMC)) of the same compound?
Answer: 17 % of control

Question: What about the T/C (dose: 128.0 mg/kg/injection, schedule: Q01DX011 (ip), vehicle: carboxymethylcellulose (CMC)) of the same compound?
Answer: 10 % of control

Question: Which T/C (dose: 30.0 mg/kg/injection, schedule: Q01DX011 (ip), vehicle: carboxymethylcellulose (CMC)) does the source give for `Cn1cnc2c(Cl)nc(C(F)(F)F)nc21` here?
Answer: 80 % of control

Question: Which results are given for `CCC(c1ccc(O)cc1)C(CC)c1ccc(OC)cc1` (stereo unspecified)?
Answer: T/C (dose: 5.0 mg/kg/injection, schedule: Q01DX011 (sc), vehicle: steriod suspending solution): 57 % of control; T/C (dose: 10.0 mg/kg/injection, schedule: Q01DX011 (sc), vehicle: steriod suspending solution): 56 % of control; T/C (dose: 20.0 mg/kg/injection, schedule: Q01DX011 (sc), vehicle: steriod suspending solution): 33 % of control; T/C (dose: 31.0 mg/kg/injection, schedule: Q01DX011 (ip), vehicle: olive oil, sesame oil, peanut oil): 33 % of control; T/C (dose: 62.5 mg/kg/injection, schedule: Q01DX011 (ip), vehicle: olive oil, sesame oil, peanut oil): 27 % of control; T/C (dose: 125.0 mg/kg/injection, schedule: Q01DX011 (ip), vehicle: olive oil, sesame oil, peanut oil): 45 % of control; T/C (dose: 250.0 mg/kg/injection, schedule: Q01DX011 (ip), vehicle: olive oil, sesame oil, peanut oil): 33 % of control

Question: For `NC(=O)c1n[nH]nc1N=Nc1c(O)ccc2ccccc12`, which T/C (dose: 16.0 mg/kg/injection, schedule: Q01DX011 (ip), vehicle: carboxymethylcellulose (CMC)) is on record?
Answer: 85 % of control

Question: What about the T/C (dose: 31.0 mg/kg/injection, schedule: Q01DX011 (ip), vehicle: carboxymethylcellulose (CMC)) of the same compound?
Answer: 120 % of control

Question: What about the T/C (dose: 62.0 mg/kg/injection, schedule: Q01DX011 (ip), vehicle: carboxymethylcellulose (CMC)) of the same compound?
Answer: 204 % of control

Question: For `O=C1NC(=O)C(c2ccc(Cl)cc2)(c2ccccc2Cl)N1` (stereo unspecified), which T/C [1] is on record?
Answer: 91 % of control

Question: What about the T/C [2] of the same compound?
Answer: 82 % of control

Question: What about the T/C (dose: 125.0 mg/kg/injection, schedule: Q01DX011 (ip), vehicle: carboxymethylcellulose (CMC)) of the same compound?
Answer: 81 % of control

Question: And the T/C [3]?
Answer: 58 % of control and 77 % of control

Question: What about the T/C (dose: 250.0 mg/kg/injection, schedule: Q01DX011 (ip), vehicle: carboxymethylcellulose (CMC)) of the same compound?
Answer: 28 % of control

Question: And the T/C (dose: 400.0 mg/kg/injection, schedule: Q01DX011 (ip), vehicle: other)?
Answer: 71 % of control

Question: And the T/C (dose: 500.0 mg/kg/injection, schedule: Q01DX011 (ip), vehicle: carboxymethylcellulose (CMC))?
Answer: 81 % of control

Question: And the T/C (dose: 800.0 mg/kg/injection, schedule: Q01DX011 (ip), vehicle: other)?
Answer: 30 % of control

Question: And the T/C (dose: 800.0 mg/kg/injection, schedule: Q01DX011 (ip), vehicle: saline)?
Answer: 76 % of control

Question: And the T/C (dose: 1600.0 mg/kg/injection, schedule: Q01DX011 (ip), vehicle: saline)?
Answer: 107 % of control

Question: How did the T/C (dose: 25.0 mg/kg/injection, schedule: Q01DX011 (sc), vehicle: steriod suspending solution) turn out when `CC12CCC(=O)C=C1CCC1C2C(O)CC2(C)C(O)CCC12` (stereo unspecified) was run?
Answer: 73 % of control

Question: And the T/C (dose: 100.0 mg/kg/injection, schedule: Q01DX011 (sc), vehicle: steriod suspending solution)?
Answer: 97 % of control

Question: And the T/C (dose: 300.0 mg/kg/injection, schedule: Q01DX011 (sc), vehicle: steriod suspending solution)?
Answer: 84 % of control
